The values below come from BindingDB's records for doi:10.1021/jm960063l (Institute, 1996).

Molecules are shown by their SMILES.

Test [1] is described as follows: Inhibitory constant for RTX binding to porcine spinal cord.
Test [2] is described as follows: Inhibition of [3H]- RTX binding to Vanilloid receptors from pig spinal cord.

For the compound `COc1cc(CC(=O)OCC2=C[C@H]3C4C(C)(C)[C@]4(OC(C)=O)[C@H](OC(=O)Cc4ccccc4)[C@@H](C)[C@]3(O)[C@@H]3C=C(C)C(=O)[C@@]3(O)C2)ccc1O` (stereo partly drawn) [Phenyl-acetic acid (1aR,1bS,4aR,7aS,7bS,8R,9R,9aS)-9a-acetoxy-4a,7b-dihydroxy-3-[2-(4-hydroxy-3-methoxy-phenyl)-acetoxymethyl]-1,1,6,8-tetramethyl-5-oxo-1a,1b,4,4a,5,7a,7b,8,9,9a-decahydro-1H-cyclopropa[3,4]benzo[1,2-e]azulen-9-yl ester], the values for the Ki in test [1] and in test [2] were 0.00012 µM and 2.1 µM, respectively.
